{"source": "paper PMC8480901", "about": "(PLoS ONE, 2021)", "system": "human PBMCs", "assay": "LPS-induced cytokine and chemokine levels in human PBMC supernatant (Luminex, ELISA)", "type": "cell-based", "conditions": "LPS-stimulated PBMC supernatant; for CCl2, Mean / CXCL1, Mean / CXCL2, Mean / MMP9, Mean: sample size 2; for CCl2, individual value / CXCL1, individual value / CXCL2, individual value / MMP9, individual value: single replicate", "note": "Several values for one entry are separate records, joined by “and”; a condition that tells them apart may be missing. Equal values may be shown once."}
{"smiles": "C[C@@H]1C[C@H]2[C@@H]3CCC4=CC(=O)C=C[C@]4(C)[C@@]3(F)[C@@H](O)C[C@]2(C)[C@@]1(O)C(=O)CO", "note": "[Dexamethasone]", "values": [{"measurement": "CCl2, % reduction", "setting": "0.0003 µM", "result": -4.68, "unit": "%"}, {"measurement": "CXCL1 % reduction", "setting": "0.0003 µM", "result": -4, "unit": "%"}, {"measurement": "CXCL2 % reduction", "setting": "0.0003 µM", "result": 4, "unit": "%"}, {"measurement": "MMP9 % reduction", "setting": "0.0003 µM", "result": 3.74, "unit": "%"}, {"measurement": "CCl2, Mean", "setting": "0.0003 µM", "result": 1323, "unit": "pg/mL"}, {"measurement": "CXCL1, Mean", "setting": "0.0003 µM", "result": 6192, "unit": "pg/mL"}, {"measurement": "CXCL2, Mean", "setting": "0.0003 µM", "result": 4849, "unit": "pg/mL"}, {"measurement": "MMP9, Mean", "setting": "0.0003 µM", "result": 2934, "unit": "pg/mL"}, {"measurement": "CCl2, individual value", "setting": "0.0003 µM", "result": "1383 pg/mL and 1264 pg/mL"}, {"measurement": "CXCL1, individual value", "setting": "0.0003 µM", "result": "6146 pg/mL and 6238 pg/mL"}, {"measurement": "CXCL2, individual value", "setting": "0.0003 µM", "result": "4762 pg/mL and 4936 pg/mL"}, {"measurement": "MMP9, individual value", "setting": "0.0003 µM", "result": "2852 pg/mL and 3016 pg/mL"}, {"measurement": "CCl2, % reduction", "setting": "0.001 µM", "result": 0.423, "unit": "%"}, {"measurement": "CXCL1 % reduction", "setting": "0.001 µM", "result": 1.28, "unit": "%"}, {"measurement": "CXCL2 % reduction", "setting": "0.001 µM", "result": 3, "unit": "%"}, {"measurement": "MMP9 % reduction", "setting": "0.001 µM", "result": 7, "unit": "%"}, {"measurement": "CCl2, Mean", "setting": "0.001 µM", "result": 1261, "unit": "pg/mL"}, {"measurement": "CXCL1, Mean", "setting": "0.001 µM", "result": 5877, "unit": "pg/mL"}, {"measurement": "CXCL2, Mean", "setting": "0.001 µM", "result": 4905, "unit": "pg/mL"}, {"measurement": "MMP9, Mean", "setting": "0.001 µM", "result": 2887, "unit": "pg/mL"}, {"measurement": "CCl2, individual value", "setting": "0.001 µM", "result": "1275 pg/mL and 1246 pg/mL"}, {"measurement": "CXCL1, individual value", "setting": "0.001 µM", "result": "5806 pg/mL and 5947 pg/mL"}, {"measurement": "CXCL2, individual value", "setting": "0.001 µM", "result": "4830 pg/mL and 4980 pg/mL"}, {"measurement": "MMP9, individual value", "setting": "0.001 µM", "result": "2894 pg/mL and 2879 pg/mL"}, {"measurement": "CCl2, % reduction", "setting": "0.003 µM", "result": 17, "unit": "%"}, {"measurement": "CXCL1 % reduction", "setting": "0.003 µM", "result": 6, "unit": "%"}, {"measurement": "CXCL2 % reduction", "setting": "0.003 µM", "result": 4, "unit": "%"}, {"measurement": "MMP9 % reduction", "setting": "0.003 µM", "result": 16, "unit": "%"}, {"measurement": "CCl2, Mean", "setting": "0.003 µM", "result": 1056, "unit": "pg/mL"}, {"measurement": "CXCL1, Mean", "setting": "0.003 µM", "result": 5588, "unit": "pg/mL"}, {"measurement": "CXCL2, Mean", "setting": "0.003 µM", "result": 4851, "unit": "pg/mL"}, {"measurement": "MMP9, Mean", "setting": "0.003 µM", "result": 2739, "unit": "pg/mL"}, {"measurement": "CCl2, individual value", "setting": "0.003 µM", "result": "1044 pg/mL and 1067 pg/mL"}, {"measurement": "CXCL1, individual value", "setting": "0.003 µM", "result": "5506 pg/mL and 5671 pg/mL"}, {"measurement": "CXCL2, individual value", "setting": "0.003 µM", "result": "4888 pg/mL and 4814 pg/mL"}, {"measurement": "MMP9, individual value", "setting": "0.003 µM", "result": "2727 pg/mL and 2751 pg/mL"}, {"measurement": "CCl2, % reduction", "setting": "0.01 µM", "result": 33, "unit": "%"}, {"measurement": "CXCL1 % reduction", "setting": "0.01 µM", "result": 16, "unit": "%"}, {"measurement": "CXCL2 % reduction", "setting": "0.01 µM", "result": 17, "unit": "%"}, {"measurement": "MMP9 % reduction", "setting": "0.01 µM", "result": 23, "unit": "%"}, {"measurement": "CCl2, Mean", "setting": "0.01 µM", "result": 860, "unit": "pg/mL"}, {"measurement": "CXCL1, Mean", "setting": "0.01 µM", "result": 5032, "unit": "pg/mL"}, {"measurement": "CXCL2, Mean", "setting": "0.01 µM", "result": 4217, "unit": "pg/mL"}, {"measurement": "MMP9, Mean", "setting": "0.01 µM", "result": 2621, "unit": "pg/mL"}, {"measurement": "CCl2, individual value", "setting": "0.01 µM", "result": "863 pg/mL and 858 pg/mL"}, {"measurement": "CXCL1, individual value", "setting": "0.01 µM", "result": "4889 pg/mL and 5174 pg/mL"}, {"measurement": "CXCL2, individual value", "setting": "0.01 µM", "result": "4342 pg/mL and 4092 pg/mL"}, {"measurement": "MMP9, individual value", "setting": "0.01 µM", "result": "2587 pg/mL and 2655 pg/mL"}, {"measurement": "CCl2, % reduction", "setting": "0.03 µM", "result": 46, "unit": "%"}, {"measurement": "CXCL1 % reduction", "setting": "0.03 µM", "result": 25, "unit": "%"}, {"measurement": "CXCL2 % reduction", "setting": "0.03 µM", "result": 30, "unit": "%"}, {"measurement": "MMP9 % reduction", "setting": "0.03 µM", "result": 24, "unit": "%"}, {"measurement": "CCl2, Mean", "setting": "0.03 µM", "result": 701, "unit": "pg/mL"}, {"measurement": "CXCL1, Mean", "setting": "0.03 µM", "result": 4474, "unit": "pg/mL"}, {"measurement": "CXCL2, Mean", "setting": "0.03 µM", "result": 3565, "unit": "pg/mL"}, {"measurement": "MMP9, Mean", "setting": "0.03 µM", "result": 2601, "unit": "pg/mL"}, {"measurement": "CCl2, individual value", "setting": "0.03 µM", "result": "757 pg/mL and 644 pg/mL"}, {"measurement": "CXCL1, individual value", "setting": "0.03 µM", "result": "4471 pg/mL and 4477 pg/mL"}, {"measurement": "CXCL2, individual value", "setting": "0.03 µM", "result": "3377 pg/mL and 3753 pg/mL"}, {"measurement": "MMP9, individual value", "setting": "0.03 µM", "result": "2572 pg/mL and 2630 pg/mL"}, {"measurement": "CCl2, % reduction", "setting": "0.1 µM", "result": 56, "unit": "%"}, {"measurement": "CXCL1 % reduction", "setting": "0.1 µM", "result": 35, "unit": "%"}, {"measurement": "CXCL2 % reduction", "setting": "0.1 µM", "result": 40, "unit": "%"}, {"measurement": "MMP9 % reduction", "setting": "0.1 µM", "result": 39, "unit": "%"}, {"measurement": "CCl2, Mean", "setting": "0.1 µM", "result": 584, "unit": "pg/mL"}, {"measurement": "CXCL1, Mean", "setting": "0.1 µM", "result": 3861, "unit": "pg/mL"}, {"measurement": "CXCL2, Mean", "setting": "0.1 µM", "result": 3024, "unit": "pg/mL"}, {"measurement": "MMP9, Mean", "setting": "0.1 µM", "result": 2364, "unit": "pg/mL"}, {"measurement": "CCl2, individual value", "setting": "0.1 µM", "result": "488 pg/mL and 679 pg/mL"}, {"measurement": "CXCL1, individual value", "setting": "0.1 µM", "result": "3279 pg/mL and 4443 pg/mL"}, {"measurement": "CXCL2, individual value", "setting": "0.1 µM", "result": "2644 pg/mL and 3404 pg/mL"}, {"measurement": "MMP9, individual value", "setting": "0.1 µM", "result": "2111 pg/mL and 2616 pg/mL"}, {"measurement": "CCl2, % reduction", "setting": "0.3 µM", "result": 55, "unit": "%"}, {"measurement": "CXCL1 % reduction", "setting": "0.3 µM", "result": 32, "unit": "%"}, {"measurement": "CXCL2 % reduction", "setting": "0.3 µM", "result": 49, "unit": "%"}, {"measurement": "MMP9 % reduction", "setting": "0.3 µM", "result": 26, "unit": "%"}, {"measurement": "CCl2, Mean", "setting": "0.3 µM", "result": 591, "unit": "pg/mL"}, {"measurement": "CXCL1, Mean", "setting": "0.3 µM", "result": 4087, "unit": "pg/mL"}, {"measurement": "CXCL2, Mean", "setting": "0.3 µM", "result": 2585, "unit": "pg/mL"}, {"measurement": "MMP9, Mean", "setting": "0.3 µM", "result": 2569, "unit": "pg/mL"}, {"measurement": "CCl2, individual value", "setting": "0.3 µM", "result": "580 pg/mL and 603 pg/mL"}, {"measurement": "CXCL1, individual value", "setting": "0.3 µM", "result": "3996 pg/mL and 4178 pg/mL"}, {"measurement": "CXCL2, individual value", "setting": "0.3 µM", "result": "2570 pg/mL and 2599 pg/mL"}, {"measurement": "MMP9, individual value", "setting": "0.3 µM", "result": "2679 pg/mL and 2458 pg/mL"}, {"measurement": "CCl2, % reduction", "setting": "1 µM", "result": 58, "unit": "%"}, {"measurement": "CXCL1 % reduction", "setting": "1 µM", "result": 32, "unit": "%"}, {"measurement": "CXCL2 % reduction", "setting": "1 µM", "result": 48, "unit": "%"}, {"measurement": "MMP9 % reduction", "setting": "1 µM", "result": 46, "unit": "%"}, {"measurement": "CCl2, Mean", "setting": "1 µM", "result": 551, "unit": "pg/mL"}, {"measurement": "CXCL1, Mean", "setting": "1 µM", "result": 4042, "unit": "pg/mL"}, {"measurement": "CXCL2, Mean", "setting": "1 µM", "result": 2659, "unit": "pg/mL"}, {"measurement": "MMP9, Mean", "setting": "1 µM", "result": 2244, "unit": "pg/mL"}, {"measurement": "CCl2, individual value", "setting": "1 µM", "result": "591 pg/mL and 510 pg/mL"}, {"measurement": "CXCL1, individual value", "setting": "1 µM", "result": "4057 pg/mL and 4026 pg/mL"}, {"measurement": "CXCL2, individual value", "setting": "1 µM", "result": "2573 pg/mL and 2746 pg/mL"}, {"measurement": "MMP9, individual value", "setting": "1 µM", "result": "2290 pg/mL and 2198 pg/mL"}]}
